Target: Nucleic Acid
Assay: Dissociation constant of conjugate DNA complexes in 0.05 HEPES buffer of pH 7.3, at room temperature
Assay type: nucleic-acid assay

Kd	SMILES
4.8 nM	CCCCC(=O)NCCCN(CC(=O)NCCCC(=O)Nc1cc(C(=O)Nc2cc(C(=O)Nc3cc(C(=O)NCCCC(=O)Nc4cc(C(=O)Nc5cc(C(=O)Nc6cc(C(=O)NCCCN(C)C)n(C)c6)n(C)c5)n(C)c4)n(C)c3)n(C)c2)n(C)c1)CC(=O)NCCCC(=O)Nc1cc(C(=O)Nc2cc(C(=O)Nc3cc(C(=O)NCCCC(=O)Nc4cc(C(=O)Nc5cc(C(=O)Nc6cc(C(=O)NCCCN(C)C)n(C)c6)n(C)c5)n(C)c4)n(C)c3)n(C)c2)n(C)c1
4.3 nM	CCCCC(=O)N(CC(=O)NCCCC(=O)Nc1cc(C(=O)Nc2cc(C(=O)Nc3cc(C(=O)NCCCC(=O)Nc4cc(C(=O)Nc5cc(C(=O)Nc6cc(C(=O)NCCCN(C)C)n(C)c6)n(C)c5)n(C)c4)n(C)c3)n(C)c2)n(C)c1)CC(=O)NCCCC(=O)Nc1cc(C(=O)Nc2cc(C(=O)Nc3cc(C(=O)NCCCC(=O)Nc4cc(C(=O)Nc5cc(C(=O)Nc6cc(C(=O)NCCCN(C)C)n(C)c6)n(C)c5)n(C)c4)n(C)c3)n(C)c2)n(C)c1
18 nM	CCCCC(=O)NCCCCCCOP(=O)(NCCCC(=O)Nc1cc(C(=O)Nc2cc(C(=O)Nc3cc(C(=O)NCCCC(=O)Nc4cc(C(=O)Nc5cc(C(=O)Nc6cc(C(=O)NCCCN(C)C)n(C)c6)n(C)c5)n(C)c4)n(C)c3)n(C)c2)n(C)c1)NCCCC(=O)Nc1cc(C(=O)Nc2cc(C(=O)Nc3cc(C(=O)NCCCC(=O)Nc4cc(C(=O)Nc5cc(C(=O)Nc6cc(C(=O)NCCCN(C)C)n(C)c6)n(C)c5)n(C)c4)n(C)c3)n(C)c2)n(C)c1

SMILES	Kd
CN(C)CCCNC(=O)c1cc(NC(=O)c2cc(NC(=O)c3cc(NC(=O)CCCNC(=O)c4cc(NC(=O)c5cc(NC(=O)c6cc(NC(=O)CCCNP(=O)(CCCCN7C(=O)c8ccccc8C7=O)NCCCC(=O)Nc7cc(C(=O)Nc8cc(C(=O)Nc9cc(C(=O)NCCCC(=O)Nc%10cc(C(=O)Nc%11cc(C(=O)Nc%12cc(C(=O)NCCCN(C)C)n(C)c%12)n(C)c%11)n(C)c%10)n(C)c9)n(C)c8)n(C)c7)cn6C)cn5C)cn4C)cn3C)cn2C)cn1C	34 nM

Reference: ChEMBL document CHEMBL1142775, “Functionalized head-to-head hairpin polyamides: synthesis, double-stranded DNA-binding activity and affinity” (Bioorg Med Chem Lett, 2005)
